From PubChem BioAssay AID256 (DTP/NCI, 2004)
Where “and” joins values, the source holds several entries; their conditions need not be identical. Equal values may be shown once. Inconclusive results and toxic doses are left out. How the source made its calls: active means survival T/C of 150% or more; inactive means T/C below 125% in these data.

System: CD2F1 mice, L1210 leukemia ip, survival T/C
Test: NCI In Vivo Anticancer Drug Screen. Data for tumor model L1210 Leukemia (intraperitoneal) in CD2F1 (CDF1) mice
Conditions: higher = longer survival
Method in brief: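 Activity against a transplanted murine tumor was judged by comparing the compound group with a vehicle group. The outcome in the treated animals was divided by that in the controls.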

[1] = endpoint: mean survival time, dose: 100.0 mg/kg/injection, schedule: Q04DX002 (ip), vehicle: saline with Tween-80
[2] = endpoint: mean survival time, dose: 200.0 mg/kg/injection, schedule: Q04DX002 (ip), vehicle: saline with Tween-80
[3] = endpoint: mean survival time, dose: 400.0 mg/kg/injection, schedule: Q04DX002 (ip), vehicle: saline with Tween-80
[4] = endpoint: mean survival time, dose: 25.0 mg/kg/injection, schedule: Q01DX009 (ip), vehicle: saline with Tween-80
[5] = endpoint: mean survival time, dose: 50.0 mg/kg/injection, schedule: Q01DX009 (ip), vehicle: saline with Tween-80
[6] = endpoint: mean survival time, dose: 100.0 mg/kg/injection, schedule: Q01DX009 (ip), vehicle: saline with Tween-80
[7] = endpoint: mean survival time, dose: 200.0 mg/kg/injection, schedule: Q01DX009 (ip), vehicle: saline with Tween-80
[8] = endpoint: mean survival time, dose: 400.0 mg/kg/injection, schedule: Q01DX009 (ip), vehicle: saline with Tween-80
[9] = endpoint: mean survival time, dose: 100.0 mg/kg/injection, schedule: Q04DX003 (ip), vehicle: saline with Tween-80
[10] = endpoint: mean survival time, dose: 200.0 mg/kg/injection, schedule: Q04DX003 (ip), vehicle: saline with Tween-80
[11] = endpoint: mean survival time, dose: 400.0 mg/kg/injection, schedule: Q04DX003 (ip), vehicle: saline with Tween-80
[12] = endpoint: mean survival time, dose: 100.0 mg/kg/injection, schedule: Q01DX001 (ip), vehicle: saline with Tween-80
[13] = endpoint: mean survival time, dose: 200.0 mg/kg/injection, schedule: Q01DX001 (ip), vehicle: saline with Tween-80
[14] = endpoint: mean survival time, dose: 400.0 mg/kg/injection, schedule: Q01DX001 (ip), vehicle: saline with Tween-80

Measured: T/C

CCOC(=O)N(C)CC1C(=O)Nc2ccccc21 (stereo not drawn)
inactive: endpoint: mean survival time, dose: 100.0 mg/kg/injection, schedule: Q04DX003 (ip), vehicle: Klucel (hydroxypropylcellulose) (HPC) 105 % of control | endpoint: mean survival time, dose: 200.0 mg/kg/injection, schedule: Q04DX003 (ip), vehicle: Klucel (hydroxypropylcellulose) (HPC) 110 % of control | endpoint: mean survival time, dose: 400.0 mg/kg/injection, schedule: Q04DX003 (ip), vehicle: Klucel (hydroxypropylcellulose) (HPC) 102 % of control

O=C1CCn2cccc21
inactive: endpoint: median survival time, dose: 25.0 mg/kg/injection, schedule: Q04DX002 (ip), vehicle: saline 100 % of control | endpoint: median survival time, dose: 50.0 mg/kg/injection, schedule: Q04DX002 (ip), vehicle: saline 100 % of control | endpoint: median survival time, dose: 100.0 mg/kg/injection, schedule: Q04DX002 (ip), vehicle: saline 100 % of control | endpoint: median survival time, dose: 200.0 mg/kg/injection, schedule: Q04DX002 (ip), vehicle: saline 100 % of control

C/C=C/C=C/C(=O)n1nnn(/C=C/C=C/C)c1=O
inactive: endpoint: mean survival time, dose: 50.0 mg/kg/injection, schedule: Q04DX002 (ip), vehicle: saline with Tween-80 98 % of control | [1] 91 % of control | [2] 95 % of control | [3] 98 % of control

OCC(O)C(O)C(O)C(/C=N/Nc1ccccc1)=N/Nc1ccccc1 (stereo not drawn)
inactive: endpoint: mean survival time, dose: 75.0 mg/kg/injection, schedule: Q01DX001 (ip), vehicle: saline 95 % of control | endpoint: mean survival time, dose: 150.0 mg/kg/injection, schedule: Q01DX001 (ip), vehicle: saline 95 % of control | endpoint: mean survival time, dose: 300.0 mg/kg/injection, schedule: Q01DX001 (ip), vehicle: saline 95 % of control

Cc1nccn1C(C)c1ccccc1 (stereo not drawn)
inactive: endpoint: mean survival time, dose: 10.0 mg/kg/injection, schedule: Q04DX003 (ip), vehicle: saline 105 % of control | endpoint: mean survival time, dose: 20.0 mg/kg/injection, schedule: Q04DX003 (ip), vehicle: saline 94 % of control | endpoint: mean survival time, dose: 40.0 mg/kg/injection, schedule: Q04DX003 (ip), vehicle: saline 92 % of control

CN(C)CCSCC(OC(=O)c1ccccc1)c1ccccc1 (stereo not drawn)
inactive: [4] 102 % of control | [5] 98 % of control | [6] 100 % of control

C1CNC2NCCNC2N1 (stereo not drawn)
inactive: [6] 101 % of control | endpoint: mean survival time, dose: 100.0 mg/kg/injection, schedule: Q04DX003 (ip), vehicle: saline sonified 109 % of control | [7] 102 % of control | endpoint: mean survival time, dose: 200.0 mg/kg/injection, schedule: Q04DX003 (ip), vehicle: saline sonified 103 % of control | [8] 108 % of control | endpoint: mean survival time, dose: 400.0 mg/kg/injection, schedule: Q04DX003 (ip), vehicle: saline sonified 115 % of control

CCC(C)CC(=O)Nc1cccc(O)c1 (stereo not drawn)
inactive: [9] 96 % of control | [10] 96 % of control | [11] 91 % of control

COc1ccc(N=C(C)CC(C)=O)cc1
inactive: [1] 98 % of control | [2] 95 % of control | [3] 95 % of control

Cc1cc(C)nc(N)n1
inactive: [9] 95 % of control | [10] 98 % of control | [11] 98 % of control

O=C1c2ccccc2C(=O)c2c(O)c3c(c(O)c21)CCCC3O (stereo not drawn)
inactive: endpoint: mean survival time, dose: 0.05 mg/kg/injection, schedule: Q01DX001 (ip), vehicle: saline 101 % of control | endpoint: mean survival time, dose: 0.1 mg/kg/injection, schedule: Q01DX001 (ip), vehicle: saline 98 % of control | endpoint: mean survival time, dose: 0.2 mg/kg/injection, schedule: Q01DX001 (ip), vehicle: saline 101 % of control | endpoint: mean survival time, dose: 0.4 mg/kg/injection, schedule: Q01DX001 (ip), vehicle: saline 101 % of control | endpoint: mean survival time, dose: 0.8 mg/kg/injection, schedule: Q01DX001 (ip), vehicle: saline 101 % of control

CC1OC(n2cnc3c(NC(=O)c4ccccc4)ncnc32)C(O)C2OC12 (stereo not drawn)
inactive: endpoint: median survival time, dose: 12.5 mg/kg/injection, schedule: Q01DX005 (ip), vehicle: alkali diluted with water 106 % of control | endpoint: median survival time, dose: 25.0 mg/kg/injection, schedule: Q01DX005 (ip), vehicle: alkali diluted with water 102 % of control | endpoint: median survival time, dose: 50.0 mg/kg/injection, schedule: Q01DX005 (ip), vehicle: alkali diluted with water 108 % of control | endpoint: median survival time, dose: 100.0 mg/kg/injection, schedule: Q01DX005 (ip), vehicle: alkali diluted with water 100 % of control | endpoint: median survival time, dose: 200.0 mg/kg/injection, schedule: Q01DX005 (ip), vehicle: alkali diluted with water 101 % of control

c1ccc(-c2cc(-c3cc(-c4ccccc4)on3)no2)cc1
inactive: [5] 91 % of control | [12] 101 % of control | [6] 94 % of control | [13] 100 % of control | [7] 96 % of control

NC(CCSc1ccccc1)C(=O)O (stereo not drawn)
inactive: endpoint: mean survival time, dose: 100.0 mg/kg/injection, schedule: Q04DX003 (ip), vehicle: saline 104 % of control | endpoint: mean survival time, dose: 200.0 mg/kg/injection, schedule: Q04DX003 (ip), vehicle: saline 102 % of control | endpoint: mean survival time, dose: 400.0 mg/kg/injection, schedule: Q04DX003 (ip), vehicle: saline 88 % of control

CCCCCCCCCCCCCCCCCCOc1ccc(Cl)cc1
inactive: [1] 90 % of control | [2] 93 % of control

CC(C)(C)N1CC2C(c3ccccc3)NNC2(O)C1=O (stereo not drawn)
inactive: [6] 109 % of control | [7] 113 % of control | [8] 105 % of control

O=Cc1ccc(O)c(O)c1
inactive: endpoint: mean survival time, dose: 12.5 mg/kg/injection, schedule: Q01DX009 (ip), vehicle: saline 93 % of control | [4] 106 % of control | endpoint: mean survival time, dose: 25.0 mg/kg/injection, schedule: Q01DX009 (ip), vehicle: saline 98 % of control | [5] 106 % of control | endpoint: mean survival time, dose: 50.0 mg/kg/injection, schedule: Q01DX009 (ip), vehicle: saline 98 % of control | [6] 114 % of control and 102 % of control | endpoint: mean survival time, dose: 100.0 mg/kg/injection, schedule: Q01DX009 (ip), vehicle: saline 107 % of control | [7] 109 % of control | endpoint: mean survival time, dose: 200.0 mg/kg/injection, schedule: Q01DX009 (ip), vehicle: saline 116 % of control | [8] 117 % of control

c1ccc(NN=C(c2ccccc2)c2ccccc2)cc1
inactive: [9] 95 % of control | [10] 95 % of control | [11] 98 % of control

COc1ccc(OC)c(NC(=O)Oc2ccc(-c3ccccc3)cc2Cl)c1
inactive: [6] 105 % of control | [7] 102 % of control | [8] 106 % of control

CN(C)S(=O)(=O)/C=C(\Cl)c1ccccc1
inactive: [12] 97 % of control | [13] 100 % of control | [14] 104 % of control

CC1(C)CC(=O)C=C(NCc2ccccc2)C1
inactive: [9] 93 % of control | [10] 91 % of control

O=C(c1ccc(-c2ccccc2)cc1)C1CCCCC1
inactive: [6] 94 % of control | [7] 97 % of control | [8] 86 % of control

COc1ccc(-c2sc(/N=C/c3ccc(-c4ccccc4)cc3)c(C#N)c2C)cc1OC
inactive: [6] 97 % of control | [7] 100 % of control | [8] 91 % of control

C=CCOc1ccc(Cl)cc1
inactive: endpoint: mean survival time, dose: 100.0 mg/kg/injection, schedule: Q01DX001 (ip), vehicle: Klucel (hydroxypropylcellulose) (HPC) 108 % of control | endpoint: mean survival time, dose: 200.0 mg/kg/injection, schedule: Q01DX001 (ip), vehicle: Klucel (hydroxypropylcellulose) (HPC) 92 % of control | endpoint: mean survival time, dose: 400.0 mg/kg/injection, schedule: Q01DX001 (ip), vehicle: Klucel (hydroxypropylcellulose) (HPC) 100 % of control

CC(O)c1cccc([N+](=O)[O-])c1 (stereo not drawn)
inactive: [12] 93 % of control | [13] 97 % of control | [14] 93 % of control

Cc1ccc(/C=N\N=C\c2ccc(C)cc2)cc1
inactive: [9] 90 % of control | [11] 95 % of control

Clc1ccc(-c2cc(C3CO3)c3cc(Cl)cc(Cl)c3n2)cc1 (stereo not drawn)
inactive: endpoint: mean survival time, dose: 100.0 mg/kg/injection, schedule: Q01DX001 (ip), vehicle: saline 91 % of control | endpoint: mean survival time, dose: 200.0 mg/kg/injection, schedule: Q01DX001 (ip), vehicle: saline 97 % of control | endpoint: mean survival time, dose: 400.0 mg/kg/injection, schedule: Q01DX001 (ip), vehicle: saline 91 % of control

O=c1[nH]nc(OCc2ccccc2)c2ncn(Cc3ccccc3)c12
inactive: endpoint: mean survival time, dose: 12.5 mg/kg/injection, schedule: Q01DX005 (ip), vehicle: other 91 % of control | endpoint: mean survival time, dose: 100.0 mg/kg/injection, schedule: Q01DX005 (ip), vehicle: other 88 % of control | endpoint: mean survival time, dose: 200.0 mg/kg/injection, schedule: Q01DX005 (ip), vehicle: other 86 % of control

COc1cc2cc(c1Cl)N(C)C(=O)/C=C/C1(C)OC1C(C)C1CC(O)(NC(=O)O1)C(OC)C=C/C=C(\C)C2 (stereo not drawn)
inactive: endpoint: mean survival time, dose: 1.3 micrograms/kg/injection, schedule: Q01DX009 (ip), vehicle: saline + alcohol 94 % of control | endpoint: mean survival time, dose: 2.5 micrograms/kg/injection, schedule: Q01DX009 (ip), vehicle: saline + alcohol 94 % of control | endpoint: mean survival time, dose: 5.0 micrograms/kg/injection, schedule: Q01DX009 (ip), vehicle: saline + alcohol 97 % of control | endpoint: mean survival time, dose: 10.0 micrograms/kg/injection, schedule: Q01DX009 (ip), vehicle: saline + alcohol 97 % of control
